Results: patent publication US6706663B2, “Herbicidal 3-heterocyclic substituted benzisothiazole and benzisoxazole compounds” (Wyeth, priority 2000, dated 2004)

Legend:
GLXMA (Soybean) = assay: Preemergence herbicidal evaluation; type: in vivo, Glycine max, (L.) Merr.; conditions: preemergence, rated 4-5 weeks after treatment
[1] = test system: AMBEL (Ambrosia artemisifolia); assay: Postemergence herbicidal evaluation; type: in vivo, L.; conditions: postemergence
Summary of the method: (§1)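 Seedlings grown for about two weeks were sprayed postemergence and then kept under standard greenhouse care. Injury was rated visually 4–5 weeks after treatment on a 0–9 scale against untreated controls, and ratings from repeat tests were averaged.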

[2] = test system: CHEAL (Chenopodium album); assay: Postemergence herbicidal evaluation; type: in vivo, L.; conditions: postemergence
Summary of the method: as §1

[3] = test system: CASOB (Cassia obtusifolia); assay: Postemergence herbicidal evaluation; type: in vivo, L.; conditions: postemergence
Summary of the method: as §1

GALAP (Galium aparine) = assay: Preemergence herbicidal evaluation; type: in vivo; conditions: preemergence, rated 4-5 weeks after treatment
Summary of the method: (§2)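 Test compound is applied in aqueous acetone to cups just after seeding. Cups are watered and maintained on greenhouse benches. Each cup is scored 0–9 by eye relative to a control after four to five weeks.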

ZEAMX (Corn, Field) = assay: Preemergence herbicidal evaluation; type: in vivo, Zea mays, L.; conditions: preemergence, rated 4-5 weeks after treatment
[4] = test system: TRZAWR (Wheat, Winter, cv Riband); assay: Postemergence herbicidal evaluation; type: in vivo, Triticum aestivum; conditions: postemergence
Summary of the method: as §1

[5] = test system: ABUTH (Abutilon theophrasti); assay: Preemergence herbicidal evaluation; type: in vivo, Medic.; conditions: preemergence, rated 4-5 weeks after treatment
[6] = test system: GLXMAW (Soybean, Williams); assay: Preemergence herbicidal evaluation; type: in vivo, Glycine max, (L.) Merr. cv Williams; conditions: preemergence, rated 4-5 weeks after treatment
[7] = test system: TRZAWR (Wheat, Winter, cv Riband); assay: Preemergence herbicidal evaluation; type: in vivo, Triticum aestivum; conditions: preemergence, rated 4-5 weeks after treatment
Summary of the method: as §2

## Cn1c(C(F)(F)F)cc(=O)n(-c2ccc3snc(C4OCC(CS(C)(=O)=O)O4)c3c2)c1=O (single isomer, unassigned) [Compound 87, 1-methyl-3-[3-[4-[(methylsulfonyl)methyl]-1,3-dioxolan-2-yl]-1,2-benzisothiazol-5-yl]-6-(trifluoromethyl)uracil]
GLXMA (Soybean); rate 0.0620 kg/ha
  Preemergence herbicidal rating GLXMA: 9.0
GLXMA (Soybean); rate 0.1250 kg/ha
  Preemergence herbicidal rating GLXMA: 9.0
GLXMA (Soybean); rate 0.2500 kg/ha
  Preemergence herbicidal rating GLXMA: 9.0
[1]; rate 0.0320 kg/ha
  AMBEL herbicidal rating: 9.0
[1]; rate 0.0620 kg/ha
  AMBEL herbicidal rating: 9.0
[2]; rate 0.0320 kg/ha
  CHEAL herbicidal rating: 9.0
[2]; rate 0.0620 kg/ha
  CHEAL herbicidal rating: 9.0
[3]; rate 0.0320 kg/ha
  CASOB herbicidal rating: 9.0
[3]; rate 0.0620 kg/ha
  CASOB herbicidal rating: 9.0
GALAP (Galium aparine); rate 0.0620 kg/ha
  Preemergence herbicidal rating GALAP: 6.0
GALAP (Galium aparine); rate 0.1250 kg/ha
  Preemergence herbicidal rating GALAP: 9.0
GALAP (Galium aparine); rate 0.2500 kg/ha
  Preemergence herbicidal rating GALAP: 9.0
ZEAMX (Corn, Field); rate 0.0620 kg/ha
  Preemergence herbicidal rating ZEAMX: 5.5
ZEAMX (Corn, Field); rate 0.1250 kg/ha
  Preemergence herbicidal rating ZEAMX: 8.0
ZEAMX (Corn, Field); rate 0.2500 kg/ha
  Preemergence herbicidal rating ZEAMX: 8.5
[4]; rate 0.0320 kg/ha
  TRZAWR herbicidal rating: 3.0
[4]; rate 0.0620 kg/ha
  TRZAWR herbicidal rating: 4.0
[5]; rate 0.0620 kg/ha
  Preemergence herbicidal rating ABUTH: 9.0
[5]; rate 0.1250 kg/ha
  Preemergence herbicidal rating ABUTH: 9.0
[5]; rate 0.2500 kg/ha
  Preemergence herbicidal rating ABUTH: 9.0
[6]; rate 0.0620 kg/ha
  Preemergence herbicidal rating GLXMAW: 9.0
[6]; rate 0.1250 kg/ha
  Preemergence herbicidal rating GLXMAW: 9.0
[6]; rate 0.2500 kg/ha
  Preemergence herbicidal rating GLXMAW: 9.0

## Cn1c(C(F)(F)F)cc(=O)n(-c2ccc3snc(C4OCC(CS(C)(=O)=O)O4)c3c2)c1=O (single isomer, unassigned) [Compound 86, 1-methyl-3-[3-[4-[(methylsulfonyl)methyl]-1,3-dioxolan-2-yl]-1,2-benzisothiazol-5-yl]-6-(trifluoromethyl)uracil]
GLXMA (Soybean); rate 0.0620 kg/ha
  Preemergence herbicidal rating GLXMA: 5.0
GLXMA (Soybean); rate 0.1250 kg/ha
  Preemergence herbicidal rating GLXMA: 9.0
GLXMA (Soybean); rate 0.2500 kg/ha
  Preemergence herbicidal rating GLXMA: 9.0
[1]; rate 0.0320 kg/ha
  AMBEL herbicidal rating: 9.0
[1]; rate 0.0620 kg/ha
  AMBEL herbicidal rating: 9.0
[2]; rate 0.0320 kg/ha
  CHEAL herbicidal rating: 9.0
[2]; rate 0.0620 kg/ha
  CHEAL herbicidal rating: 9.0
[3]; rate 0.0320 kg/ha
  CASOB herbicidal rating: 7.0
[3]; rate 0.0620 kg/ha
  CASOB herbicidal rating: 9.0
GALAP (Galium aparine); rate 0.0620 kg/ha
  Preemergence herbicidal rating GALAP: 3.0
GALAP (Galium aparine); rate 0.1250 kg/ha
  Preemergence herbicidal rating GALAP: 4.0
GALAP (Galium aparine); rate 0.2500 kg/ha
  Preemergence herbicidal rating GALAP: 9.0
ZEAMX (Corn, Field); rate 0.0620 kg/ha
  Preemergence herbicidal rating ZEAMX: 5.0
ZEAMX (Corn, Field); rate 0.1250 kg/ha
  Preemergence herbicidal rating ZEAMX: 8.0
ZEAMX (Corn, Field); rate 0.2500 kg/ha
  Preemergence herbicidal rating ZEAMX: 9.0
[4]; rate 0.0320 kg/ha
  TRZAWR herbicidal rating: 2.5
[4]; rate 0.0620 kg/ha
  TRZAWR herbicidal rating: 3.0
[5]; rate 0.0620 kg/ha
  Preemergence herbicidal rating ABUTH: 9.0
[5]; rate 0.1250 kg/ha
  Preemergence herbicidal rating ABUTH: 9.0
[5]; rate 0.2500 kg/ha
  Preemergence herbicidal rating ABUTH: 9.0
[6]; rate 0.0620 kg/ha
  Preemergence herbicidal rating GLXMAW: 7.0
[6]; rate 0.1250 kg/ha
  Preemergence herbicidal rating GLXMAW: 9.0
[6]; rate 0.2500 kg/ha
  Preemergence herbicidal rating GLXMAW: 9.0

## CSCC1COC(c2nsc3ccc(-n4c(=O)cc(C(F)(F)F)n(C)c4=O)cc23)O1 (stereo not drawn) [Compound 84, 1-methyl-3-[3-[4-[(methylthio)methyl]-1,3-dioxolan-2-yl]-1,2-benzisothiazol-5-yl]-6-(trifluoromethyl)uracil]
GLXMA (Soybean); rate 0.0620 kg/ha
  Preemergence herbicidal rating GLXMA: 9.0
GLXMA (Soybean); rate 0.1250 kg/ha
  Preemergence herbicidal rating GLXMA: 9.0
GLXMA (Soybean); rate 0.2500 kg/ha
  Preemergence herbicidal rating GLXMA: 9.0
[7]; rate 0.0620 kg/ha
  Preemergence herbicidal rating TRZAWR: 2.0
[7]; rate 0.1250 kg/ha
  Preemergence herbicidal rating TRZAWR: 5.0
[1]; rate 0.0320 kg/ha
  AMBEL herbicidal rating: 7.5
[1]; rate 0.0620 kg/ha
  AMBEL herbicidal rating: 9.0
[1]; rate 0.1250 kg/ha
  AMBEL herbicidal rating: 9.0
[2]; rate 0.0320 kg/ha
  CHEAL herbicidal rating: 9.0
[2]; rate 0.0620 kg/ha
  CHEAL herbicidal rating: 9.0
[2]; rate 0.1250 kg/ha
  CHEAL herbicidal rating: 9.0
[3]; rate 0.0320 kg/ha
  CASOB herbicidal rating: 7.0
[3]; rate 0.0620 kg/ha
  CASOB herbicidal rating: 7.0
[3]; rate 0.1250 kg/ha
  CASOB herbicidal rating: 9.0
GALAP (Galium aparine); rate 0.0620 kg/ha
  Preemergence herbicidal rating GALAP: 7.0
GALAP (Galium aparine); rate 0.1250 kg/ha
  Preemergence herbicidal rating GALAP: 8.0
GALAP (Galium aparine); rate 0.2500 kg/ha
  Preemergence herbicidal rating GALAP: 9.0
ZEAMX (Corn, Field); rate 0.0620 kg/ha
  Preemergence herbicidal rating ZEAMX: 3.7
ZEAMX (Corn, Field); rate 0.1250 kg/ha
  Preemergence herbicidal rating ZEAMX: 6.3
ZEAMX (Corn, Field); rate 0.2500 kg/ha
  Preemergence herbicidal rating ZEAMX: 8.0
[4]; rate 0.0320 kg/ha
  TRZAWR herbicidal rating: 4.8
[4]; rate 0.0620 kg/ha
  TRZAWR herbicidal rating: 6.3
[4]; rate 0.1250 kg/ha
  TRZAWR herbicidal rating: 9.0
[5]; rate 0.0620 kg/ha
  Preemergence herbicidal rating ABUTH: 9.0
[5]; rate 0.1250 kg/ha
  Preemergence herbicidal rating ABUTH: 9.0
[5]; rate 0.2500 kg/ha
  Preemergence herbicidal rating ABUTH: 9.0
[6]; rate 0.0620 kg/ha
  Preemergence herbicidal rating GLXMAW: 7.0
[6]; rate 0.1250 kg/ha
  Preemergence herbicidal rating GLXMAW: 9.0
[6]; rate 0.2500 kg/ha
  Preemergence herbicidal rating GLXMAW: 9.0
